ChEMBL document CHEMBL5728275 (2021)

Target: Dihydroorotate dehydrogenase (quinone), mitochondrial (Homo sapiens, UniProt Q02127)
Experiment: Method for Testing Activities of Compounds at Enzyme Level: Principles of activity test at enzyme level: firstly, dihydroorotate (DHO) is oxidatively dehydrogenated by DHODH to form orotic acid (Orotate, OA), accompanied by reduction of Flavin mononucleotide (FMN) into reduced flavin mononucleotide (FMNH2) by accepting 2H+ and 2e−, then coenzyme Q (CoQ) as hydrogen acceptor accepting electron and proton from FMNH2 is reduced into reduced coenzyme Q (CoQH2), reduced coenzyme Q transfers electrons to a chromogenic substrate, […] (DCIP), and finally DCIP was reduced. […] The degree to which the substrate DHO is oxidized can be judged based on the degree of decrease in absorbance. The degree of oxidation of the substrate DHO per unit time is the initial rate of the enzymatic reaction. […] Substrate DHO was added to start the reaction with a DHO final concentration of 500 μM. The absorbance was read at 600 nm using a BioTek microplate reader and read every 30 s for 6 min. […] For calculating IC50 of a compound, Origin 8.0 was used to test the inhibition rate at least 8 concentrations.
Type: single protein

Sequence of Dihydroorotate dehydrogenase (quinone), mitochondrial (Q02127 whole entry): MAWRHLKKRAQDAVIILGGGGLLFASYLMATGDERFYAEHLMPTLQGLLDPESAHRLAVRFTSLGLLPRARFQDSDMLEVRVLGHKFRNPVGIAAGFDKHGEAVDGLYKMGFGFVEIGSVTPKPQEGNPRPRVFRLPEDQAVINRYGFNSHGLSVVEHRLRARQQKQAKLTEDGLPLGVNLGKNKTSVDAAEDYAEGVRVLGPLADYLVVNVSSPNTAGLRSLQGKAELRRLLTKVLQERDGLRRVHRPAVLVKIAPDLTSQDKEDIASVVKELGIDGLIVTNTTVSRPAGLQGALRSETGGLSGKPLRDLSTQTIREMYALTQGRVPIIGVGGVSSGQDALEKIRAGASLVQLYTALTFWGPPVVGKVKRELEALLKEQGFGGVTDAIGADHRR

IC50 [µM]	SMILES
> 50	O=C(OCCc1ccccc1)c1ccccc1/C=N/Nc1nc(-c2ccccc2Cl)cs1
0.0355	Cc1sc(N(C)/N=C/c2ccccc2C(=O)O)nc1-c1ccccc1Cl

SMILES	IC50 [µM]
CN(/N=C/c1ccccc1C(=O)OCCc1ccccc1)c1nc(-c2ccccc2Cl)cs1	> 50
